Test system: LLC (Lewis Lung Cancer) tumor
Assay: Antitumor experiment in LLC mouse model (subcutaneous xenograft LLC tumor)
Format: in vivo, C57BL/6 mice
Conditions: i.g.; for TV (mm^3) on day 0 Mean ± SD: day 0 (grouping, before dosing from day 1); for TGI (%): from tumor weight on day 15 vs control group
Protocol: In Example 1, the TLR7 agonist was
[drawing 58] and anlotinib was anlotinib dihydrochloride.
LLC (Lewis Lung Cancer) Mice: subcutaneously grafted tumor cells of lung cancer (concentration: 2×10^6/mL×0.2 mL/mouse) were inoculated into C57BL/6 mice at the right side armpit (the site to be inoculated was shaved before inoculating) in a sterile environment, and passaged using a block insertion method. The C57BL/6 mice were female and 16-18 g in weight, and the breeding environment was SPF level. The diameter of the C57BL/6 xenograft tumor was measured using a vernier caliper, and the animals were randomly divided into five groups when the tumors grew to 100-300 mm^3: • i. Control group (blank control); • ii. Monotherapy group: anlotinib 5 mg/kg/d (positive control), with normal saline as a vehicle; • iii. Monotherapy group: TLR7 agonist 20 mg/kg, t.i.w., with ethanol/Tween 80 (v:v=1:1) as a vehicle; • iv. Monotherapy group: anlotinib 1 mg/kg/d, with normal saline as a vehicle; and • v. Combination therapy group: TLR7 agonist 20 mg/kg, t.i.w., and anlotinib 1 mg/kg/d.
The mice in the control group and monotherapy groups were administered in a volume of 10 mL/kg, and the mice in the combination therapy group were administered with two drugs simultaneously, each in a volume of 10 mL/kg. Weights and diameter of the tumor were measured every three days, and the behavior of mice was observed daily.
Mice were divided into groups on day 0, with 12 in the control group and 6 in each of the remaining groups. The drugs were administered intragastrically (i.g.) from day 1. The treatment was discontinued on day 12. During the experiment, the tumor volume was measured on days 0, 3, 6, 9, 12 and 15, and the tumors were removed and weighed on day 15, i.e., at the end of experiment.
The tumor volume and the tumor growth inhibition were calculated using the following formulae: Tumor volume (TV)=(L×W^2)/2. Tumor growth inhibition (TGI)=(1−tumor weight in the treatment group/tumor weight in the control group)×100%.

Row | SMILES | TV (mm^3) on day 0 Mean ± SD (anlotinib 1 mg/kg/d × 11 d) [mm^3] | TV (mm^3) on day 12 Mean ± SD (anlotinib 1 mg/kg/d × 11 d) [mm^3] | TV (mm^3) on day 15 Mean ± SD (anlotinib 1 mg/kg/d × 11 d) [mm^3] | TGI (%) (anlotinib 1 mg/kg/d × 11 d) | TV (mm^3) on day 0 Mean ± SD (anlotinib 5 mg/kg/d × 11 d, female C57BL/6 mice with LLC tumor) [mm^3] | TV (mm^3) on day 12 Mean ± SD (anlotinib 5 mg/kg/d × 11 d) [mm^3] | TV (mm^3) on day 15 Mean ± SD (anlotinib 5 mg/kg/d × 11 d) [mm^3] | TGI (%) (anlotinib 5 mg/kg/d × 11 d) | TV (mm^3) on day 0 Mean ± SD (TLR7 agonist 20 mg/kg, t.i.w.) [mm^3] | TV (mm^3) on day 12 Mean ± SD (TLR7 agonist 20 mg/kg, t.i.w.) [mm^3] | TV (mm^3) on day 15 Mean ± SD (TLR7 agonist 20 mg/kg, t.i.w.) [mm^3] | TGI (%) (TLR7 agonist 20 mg/kg, t.i.w.) | growth of LLC tumor (result in words) (TLR7 agonist alone, 20 mg/kg, t.i.w., summary of Table 1)
1 | COc1cc2c(Oc3ccc4[nH]c(C)cc4c3F)ccnc2cc1OCC1(N)CC1 [Anlotinib, 1-[[[4-(4-fluoro-2-methyl-1H-indol-5-yl)oxy-6-methoxyquinolin-7-yl]oxy]methyl]cyclopropylamine] | 213.25 ± 39.34 | 2697.21 ± 747.99 | 4114.08 ± 1213.40 | 13.5 | 213.47 ± 38.16 | 1393.38 ± 532.59 | 1811.75 ± 736.45 | 63.4 | – | – | – | – | –
2 | CCCCOc1nc(N)c2[nH]cc(Cc3ccc(CN4CCCC4)cc3)c2n1 [TLR7 agonist] | – | – | – | – | – | – | – | – | 212.98 ± 47.17 | 2353.68 ± 663.83 | 3257.62 ± 577.45 | 30.1 | can inhibit the growth of LLC tumor

Source: US12128047B2, “TLR7 agonist and pharmaceutical combination thereof for treating lung cancer” (CHIA TAI TIANQING PHARMACEUTICAL GROUP CO., LTD., priority 2018, dated 2024)
